As usually defined, the GI50 is the concentration at which growth is held to half of that of the control.

The structures appear in SMILES notation.

The test system of one assay is HCT116 cells. The assay can be described thus: Growth inhibition assay (MTS). Format: cell-based. Particulars: Homo sapiens, HCT-116, 48 h, Table 5; HCT116 cells, 48 hours treatment, MTS; read-out: Growth Inhibition (GI50, uM) HCT116. In outline: (§1)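 Cells seeded at 10^4 per well, grown 24 h at 37° C, then exposed to compound at various concentrations for 48 hours. MTS added for 2 h; absorbance at 490 nm gave viability, with cytotoxicity calculated per concentration against pre-treatment reading.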
On to `[2H]C([2H])(c1ccc(O)cc1)[C@H]1C(=O)N(Cc2cccc3ccccc23)C[C@H]2N1C(=O)CN(C)N2C(=O)NCc1ccccc1` [Compound 135], for which the GI50 came to 3.1 ± 0.8 µM.
On the same count and under the same terms, as for `C[C@H](c1cccc(N(C)C)c1)N1C[C@H]2N(C(=O)CN(C)N2C(=O)NCc2ccccc2)[C@@H](Cc2ccc(O)cc2)C1=O` [Compound 38], the figure is 6.9 µM; as for `C=CCN1CC(=O)N2[C@@H](Cc3ccc(O)cc3)C(=O)N(Cc3cccc(N(C)C)c3)C[C@@H]2N1C(=O)NCc1ccccc1` [Compound 162], 1.3 ± 0.7 µM.
The same measure, in the same setting: to `CCN(CC)c1cccc(CN2C[C@H]3N(C(=O)CN(C)N3C(=O)NCc3ccccc3)[C@@H](Cc3ccc(O)cc3)C2=O)c1` [Compound 26] belongs 3.06 µM; to `C=CCN1CC(=O)N2[C@@H](Cc3ccc(O)cc3)C(=O)N(Cc3ccc(OC)cc3OC)C[C@@H]2N1C(=O)NCc1ccccc1` [Compound 183], 1.5 ± 0.1 µM; to `C[C@H](c1ccccc1)N1C[C@H]2N(C(=O)CN(C)N2C(=O)NCc2ccccc2)[C@@H](Cc2ccc(O)cc2)C1=O` [Compound 19], 1.17 µM.
Still for that read-out and setting: to `COc1ccc(CN2CC3N(C(=O)CN(C)N3C(=O)NCc3ccccc3)[C@@H](Cc3ccc(O)cc3)C2=O)cc1` (stereo partly drawn) [Compound 20] belongs 2.75 µM.
`CCCN1CC(=O)N2[C@@H](Cc3ccc(O)cc3)C(=O)N(Cc3ccc(Cl)c4cccnc34)C[C@@H]2N1C(=O)NCc1ccccc1` [Compound 120]: the GI50 stood at 2.6 ± 0.1 µM.
On to `CC(C)N(C)c1cccc([C@@H](C)N2C[C@H]3N(C(=O)CN(C)N3C(=O)NCc3ccccc3)[C@@H](Cc3ccc(O)cc3)C2=O)c1` [Compound 42], for which the GI50 came out at 10.8 µM.
The same measure, in the same setting: as for `C=CCN1CC(=O)N2[C@@H](Cc3ccc(O)cc3)C(=O)N(Cc3cccc4scnc34)C[C@@H]2N1C(=O)NCc1ccc(Cl)c(Cl)c1` [Compound 180], the figure is 1.1 ± 0.1 µM; as for `C#CCN1CC(=O)N2[C@@H](Cc3ccc(O)cc3)C(=O)N(Cc3ccc(Cl)c(N(C)C)c3)C[C@@H]2N1C(=O)NCc1ccccc1` [Compound 83], 2.5 ± 0.1 µM.
Still for that read-out and setting: to `CN1CC(=O)N2[C@@H](Cc3ccc(O)cc3)C(=O)N(Cc3ccc4ccccc4c3)C[C@@H]2N1C(=O)NCc1ccccc1` [Compound 9] belongs 1.92 µM; to `C=CCN1CC(=O)N2[C@@H](Cc3ccc(O)cc3)C(=O)N(Cc3cccc4c3OCCO4)C[C@@H]2N1C(=O)NCc1ccc(Cl)c(Cl)c1` [Compound 174], 1.8 ± 0.1 µM; to `Cc1cc(C)c(N(C)C)c(CN2C[C@H]3N(C(=O)CN(C)N3C(=O)NCc3ccccc3)[C@@H](Cc3ccc(O)cc3)C2=O)c1` [Compound 28], 5.47 µM.
Still for that read-out and setting: as for `C=CCN1CC(=O)N2[C@@H](Cc3ccc(O)cc3)C(=O)N(Cc3cccc4c3OCC4)C[C@@H]2N1C(=O)NCc1ccccc1` [Compound 175], the figure is 2.5 ± 0.1 µM; as for `CN(C)c1ccccc1CN1C[C@H]2N(C(=O)CN(C)N2C(=O)NCc2ccccc2)[C@@H](Cc2ccc(O)cc2)C1=O` [Compound 22], 3.26 µM; as for `CN1CC(=O)N2[C@@H](Cc3ccc(O)cc3)C(=O)N(Cc3cccc4c3nnn4C)C[C@@H]2N1C(=O)NCc1ccccc1` [Compound 53], 4.7 ± 0.4 µM.
For the compound `C#CCn1cc2cccc(CN3C[C@H]4N(C(=O)CN(C)N4C(=O)NCc4ccccc4)[C@@H](Cc4ccc(O)cc4)C3=O)c2n1` [Compound 79], the GI50 is 5.2 ± 0.4 µM.
On the same count and under the same terms, as for `CC(C)N(C)c1cccc(Cl)c1CN1C[C@H]2N(C(=O)CN(C)N2C(=O)NCc2ccccc2)[C@@H](Cc2ccc(O)cc2)C1=O` [Compound 32], the figure is 16.9 ± 1.9 µM.
On the same count and under the same terms, as for `CN1CC(=O)N2[C@@H](Cc3ccc(O)cc3)C(=O)N(Cc3cc(F)c(F)c(F)c3)C[C@@H]2N1C(=O)NCc1ccccc1` [Compound 17], the figure is 0.74 µM; as for `CN1CC(=O)N2[C@@H](Cc3ccc(O)cc3)C(=O)N(Cc3cccc4cccnc34)C[C@@H]2N1C(=O)NCc1ccccc1` [Compound 8], less than 0.3 µM.

In a further assay the test system is SW480 cells. The assay can be described thus: Growth inhibition assay (MTS). Format: cell-based. Particulars: Homo sapiens, SW480, 48 h, Table 5; SW480 cells, 48 hours treatment, MTS; read-out: Growth Inhibition (GI50, uM) SW480. In outline: as §1
As to `[2H]C([2H])(c1ccc(O)cc1)[C@H]1C(=O)N(Cc2cccc3ccccc23)C[C@H]2N1C(=O)CN(C)N2C(=O)NCc1ccccc1` [Compound 135], the GI50 was found to be 3.2 ± 0.4 µM.
Same read-out and setting: to `C[C@H](c1cccc(N(C)C)c1)N1C[C@H]2N(C(=O)CN(C)N2C(=O)NCc2ccccc2)[C@@H](Cc2ccc(O)cc2)C1=O` [Compound 38] belongs 8.5 µM; to `C=CCN1CC(=O)N2[C@@H](Cc3ccc(O)cc3)C(=O)N(Cc3cccc(N(C)C)c3)C[C@@H]2N1C(=O)NCc1ccccc1` [Compound 162], 1 ± 0.3 µM; to `CCN(CC)c1cccc(CN2C[C@H]3N(C(=O)CN(C)N3C(=O)NCc3ccccc3)[C@@H](Cc3ccc(O)cc3)C2=O)c1` [Compound 26], 23.9 µM.
Same read-out and setting: as for `C=CCN1CC(=O)N2[C@@H](Cc3ccc(O)cc3)C(=O)N(Cc3ccc(OC)cc3OC)C[C@@H]2N1C(=O)NCc1ccccc1` [Compound 183], the figure is 1.6 ± 0.3 µM; as for `C[C@H](c1ccccc1)N1C[C@H]2N(C(=O)CN(C)N2C(=O)NCc2ccccc2)[C@@H](Cc2ccc(O)cc2)C1=O` [Compound 19], 2.66 µM.
Regarding `COc1ccc(CN2CC3N(C(=O)CN(C)N3C(=O)NCc3ccccc3)[C@@H](Cc3ccc(O)cc3)C2=O)cc1` (stereo partly drawn) [Compound 20], the GI50 worked out at 5.02 µM.
Still for that read-out and setting: as for `CCCN1CC(=O)N2[C@@H](Cc3ccc(O)cc3)C(=O)N(Cc3ccc(Cl)c4cccnc34)C[C@@H]2N1C(=O)NCc1ccccc1` [Compound 120], the figure is 1.8 ± 0.2 µM; as for `CC(C)N(C)c1cccc([C@@H](C)N2C[C@H]3N(C(=O)CN(C)N3C(=O)NCc3ccccc3)[C@@H](Cc3ccc(O)cc3)C2=O)c1` [Compound 42], 24.7 µM.
On the same count and under the same terms, as for `C=CCN1CC(=O)N2[C@@H](Cc3ccc(O)cc3)C(=O)N(Cc3cccc4scnc34)C[C@@H]2N1C(=O)NCc1ccc(Cl)c(Cl)c1` [Compound 180], the figure is 1 ± 0.1 µM; as for `C#CCN1CC(=O)N2[C@@H](Cc3ccc(O)cc3)C(=O)N(Cc3ccc(Cl)c(N(C)C)c3)C[C@@H]2N1C(=O)NCc1ccccc1` [Compound 83], 2.3 ± 0.3 µM; as for `CN1CC(=O)N2[C@@H](Cc3ccc(O)cc3)C(=O)N(Cc3ccc4ccccc4c3)C[C@@H]2N1C(=O)NCc1ccccc1` [Compound 9], 2.36 µM.
Same read-out and setting: to `C=CCN1CC(=O)N2[C@@H](Cc3ccc(O)cc3)C(=O)N(Cc3cccc4c3OCCO4)C[C@@H]2N1C(=O)NCc1ccc(Cl)c(Cl)c1` [Compound 174] belongs 1.9 ± 0.2 µM.
For the compound `Cc1cc(C)c(N(C)C)c(CN2C[C@H]3N(C(=O)CN(C)N3C(=O)NCc3ccccc3)[C@@H](Cc3ccc(O)cc3)C2=O)c1` [Compound 28], the GI50 was 3.57 µM.
On the same count and under the same terms, as for `C=CCN1CC(=O)N2[C@@H](Cc3ccc(O)cc3)C(=O)N(Cc3cccc4c3OCC4)C[C@@H]2N1C(=O)NCc1ccccc1` [Compound 175], the figure is 3 ± 0.4 µM.
On to `CN(C)c1ccccc1CN1C[C@H]2N(C(=O)CN(C)N2C(=O)NCc2ccccc2)[C@@H](Cc2ccc(O)cc2)C1=O` [Compound 22], for which the GI50 is 6.58 µM.
Still for that read-out and setting: as for `CN1CC(=O)N2[C@@H](Cc3ccc(O)cc3)C(=O)N(Cc3cccc4c3nnn4C)C[C@@H]2N1C(=O)NCc1ccccc1` [Compound 53], the figure is 11.4 ± 0.9 µM; as for `C#CCn1cc2cccc(CN3C[C@H]4N(C(=O)CN(C)N4C(=O)NCc4ccccc4)[C@@H](Cc4ccc(O)cc4)C3=O)c2n1` [Compound 79], 2.8 ± 0.2 µM.
Same read-out and setting: as for `CC(C)N(C)c1cccc(Cl)c1CN1C[C@H]2N(C(=O)CN(C)N2C(=O)NCc2ccccc2)[C@@H](Cc2ccc(O)cc2)C1=O` [Compound 32], the figure is 47.2 ± 12.1 µM; as for `CN1CC(=O)N2[C@@H](Cc3ccc(O)cc3)C(=O)N(Cc3cc(F)c(F)c(F)c3)C[C@@H]2N1C(=O)NCc1ccccc1` [Compound 17], 1.12 µM; as for `CN1CC(=O)N2[C@@H](Cc3ccc(O)cc3)C(=O)N(Cc3cccc4cccnc34)C[C@@H]2N1C(=O)NCc1ccccc1` [Compound 8], less than 0.3 µM.

The record behind these values is patent US7671054B1, “Reverse-turn mimetics and method relating thereto” (Choongwae Pharma Corporation, priority 2001, dated 2010).
